{
  "source": "patent US20160256511A1",
  "about": "“COMPOSITIONS AND METHODS FOR THE TREATMENT OR PROPHYLAXIS OF CIRCADIAN PROTEIN RELATED CONDITIONS” (IN INGREDIENTS, INC., priority 2013, published 2016)",
  "assay_type_in_all_cases": "cell-based, Porcine",
  "details_in_all_cases": "24 hr, all three concentrations (1 μM; 5 μM; 20 μM)",
  "key": {"SIRT1": {"system": "SIRT1", "assay": "SIRT1 immunofluorescence in iPEC-1 cells treated with ursolic acid", "method": "(§1) iPEC-1 cells were grown as a monolayer in DMEM with 10% fetal bovine serum (FBS) and the necessary supplements at 37° C. in a humidified incubator with 5% CO2. iPEC1 cells were seeded on 35 mm dishes. Experiments were initiated 48 hr after plating. Cells were treated with saline or with ursolic acid at three separate dosages (1 μM; 5 μM; or 20 μM) in the medium for 24 hr at 37° C. The cells were then washed with ice-cold PBS and fixed with 4% paraformaldehyde for 10 min at room temperature followed by permeabilization with 0.3% Triton X-100 for 10 min. After being washed with PBS three times, cells were incubated for 1 hr in PBS containing 10% normal goat serum blocking solution. The cells were subjected to immunofluorescence staining with the target specific antibodies (SIRT1, CLOCK and Bmal1) overnight at 4° C. The cells were then washed with cold PBS three times for 3 min each, and incubated with Alexa-labeled secondary antibodies (Invitrogen) at room temperature for 1 h. The cells were examined by fluorescence microscopy (a Nikon TE2000-S microscope, Nikon, Tokyo, Japan)."}, "CLOCK": {"system": "CLOCK", "assay": "CLOCK immunofluorescence in iPEC-1 cells treated with ursolic acid", "method": "as §1"}, "Bmal1": {"system": "Bmal1", "assay": "Bmal1 immunofluorescence in iPEC-1 cells treated with ursolic acid", "method": "as §1"}},
  "data": [
    {"molecule": "C[C@H]1[C@H](C)CC[C@]2(C(=O)O)CC[C@]3(C)C(=CC[C@@H]4[C@@]5(C)CC[C@H](O)C(C)(C)[C@@H]5CC[C@]43C)[C@H]12", "note": "[ursolic acid]", "values": [
      {"measurement": "intensity of immunofluorescence of SIRT1 compared with controls", "setting": "SIRT1", "result": "significantly induced the intensity of immunofluorescence"},
      {"measurement": "intensity of immunofluorescence of CLOCK compared with controls", "setting": "CLOCK", "result": "significantly induced the intensity of immunofluorescence"},
      {"measurement": "intensity of immunofluorescence of Bmal1 compared with controls", "setting": "Bmal1", "result": "significantly induced the intensity of immunofluorescence"}
    ]}
  ]
}
